Source: PubChem BioAssay AID248 (DTP/NCI, 2004)
Several values for one entry are separate records, joined by “and”; a condition that tells them apart may be missing. Equal values may be shown once. Toxic doses and inconclusive results are not listed. Rule as the data show it: active = T/C of 150% or more; inactive = T/C below 125%.

Test system: L1210 leukemia ip in BDF1 mice, survival T/C
Test: NCI In Vivo Anticancer Drug Screen. Data for tumor model L1210 Leukemia (intraperitoneal) in B6D2F1 (BDF1) mice
Conditions: endpoint: mean survival time, higher = longer survival
Summary of the method: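 Transplanted-tumor mice were given test agent; controls received vehicle only. Survival readings from the two groups were divided (treated over control).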

[1] = dose: 100.0 mg/kg/injection, schedule: Q01DX001 (ip), vehicle: saline
[2] = dose: 200.0 mg/kg/injection, schedule: Q01DX001 (ip), vehicle: saline
[3] = dose: 400.0 mg/kg/injection, schedule: Q01DX001 (ip), vehicle: saline
[4] = dose: 100.0 mg/kg/injection, schedule: Q04DX002 (ip), vehicle: saline
[5] = dose: 100.0 mg/kg/injection, schedule: Q04DX003 (ip), vehicle: Klucel (hydroxypropylcellulose) (HPC)
[6] = dose: 200.0 mg/kg/injection, schedule: Q04DX003 (ip), vehicle: Klucel (hydroxypropylcellulose) (HPC)
[7] = dose: 400.0 mg/kg/injection, schedule: Q04DX003 (ip), vehicle: Klucel (hydroxypropylcellulose) (HPC)
[8] = dose: 100.0 mg/kg/injection, schedule: Q04DX002 (ip), vehicle: saline with Tween-80

Measured: T/C

CC(=O)OCC1OC(SSC2OC(COC(C)=O)C(OC(C)=O)C(OC(C)=O)C2OC(C)=O)C(OC(C)=O)C(OC(C)=O)C1OC(C)=O (stereo not given)
inactive: [1] 93 % of control | [2] 95 % of control | [3] 89 % of control

CS(=O)(=O)c1ccc(Nn2c(N)nn(-c3ccc(S(C)(=O)=O)cc3)c2=N)cc1
inactive: dose: 50.0 mg/kg/injection, schedule: Q01DX009 (ip), vehicle: saline 93 % of control and 95 % of control and 96 % of control | dose: 100.0 mg/kg/injection, schedule: Q01DX009 (ip), vehicle: saline 95 % of control and 86 % of control | dose: 200.0 mg/kg/injection, schedule: Q01DX009 (ip), vehicle: saline 97 % of control and 107 % of control and 92 % of control

CCOP(=O)(OCC)C1=C(P(=O)(OCC)OCC)C(F)(F)C(F)(F)C1(F)F
inactive: dose: 9.5 mg/kg/injection, schedule: Q01DX001 (ip), vehicle: other 100 % of control | dose: 19.0 mg/kg/injection, schedule: Q01DX001 (ip), vehicle: other 100 % of control | dose: 38.0 mg/kg/injection, schedule: Q01DX001 (ip), vehicle: other 97 % of control

CCS(=O)(=O)/C=C/c1ccncc1
inactive: dose: 25.0 mg/kg/injection, schedule: Q04DX002 (ip), vehicle: saline 104 % of control | dose: 50.0 mg/kg/injection, schedule: Q04DX002 (ip), vehicle: saline 101 % of control | [4] 111 % of control and 113 % of control

CCCN1C(=O)CC(=O)NC1=O
inactive: [1] 102 % of control | [2] 100 % of control | [3] 100 % of control

COc1ccc(OCCOC(=O)Nc2ccccc2C(F)(F)F)cc1
inactive: [5] 105 % of control | [6] 90 % of control | [7] 90 % of control

O=C(Nc1ccc(Cl)cc1C(=O)c1ccccc1)c1ccc(Cl)cc1
inactive: dose: 100.0 mg/kg/injection, schedule: Q04DX002 (ip), vehicle: Klucel (hydroxypropylcellulose) (HPC) 92 % of control | dose: 200.0 mg/kg/injection, schedule: Q04DX002 (ip), vehicle: Klucel (hydroxypropylcellulose) (HPC) 89 % of control | dose: 400.0 mg/kg/injection, schedule: Q04DX002 (ip), vehicle: Klucel (hydroxypropylcellulose) (HPC) 95 % of control

CSc1ncnc2c1C[P+](Cc1ccccc1)(c1ccccc1)CC2 (stereo not given)
inactive: [8] 103 % of control

CN(C)C(C#N)C(=O)c1ccccc1 (stereo not given)
inactive: [1] 97 % of control and 98 % of control | [3] 93 % of control

O=C(/C=C/c1ccco1)c1ccc([N+](=O)[O-])cc1
inactive: dose: 25.0 mg/kg/injection, schedule: Q04DX003 (ip), vehicle: Klucel (hydroxypropylcellulose) (HPC) 106 % of control | dose: 50.0 mg/kg/injection, schedule: Q04DX003 (ip), vehicle: Klucel (hydroxypropylcellulose) (HPC) 104 % of control | [5] 97 % of control

O=C(COc1ccccc1)NCCc1ccccc1
inactive: dose: 100.0 mg/kg/injection, schedule: Q04DX003 (ip), vehicle: gum acacia 97 % of control | dose: 200.0 mg/kg/injection, schedule: Q04DX003 (ip), vehicle: gum acacia 108 % of control | dose: 400.0 mg/kg/injection, schedule: Q04DX003 (ip), vehicle: gum acacia 95 % of control

OCC1OC(n2ccc3c(N4CCCCC4)ncnc32)C(O)C1O (stereo not given)
inactive: dose: 50.0 mg/kg/injection, schedule: Q01DX001 (ip), vehicle: carboxymethylcellulose (CMC) 93 % of control | dose: 100.0 mg/kg/injection, schedule: Q01DX001 (ip), vehicle: carboxymethylcellulose (CMC) 95 % of control | dose: 200.0 mg/kg/injection, schedule: Q01DX001 (ip), vehicle: carboxymethylcellulose (CMC) 98 % of control | dose: 400.0 mg/kg/injection, schedule: Q01DX001 (ip), vehicle: carboxymethylcellulose (CMC) 93 % of control

C/C(=N/NC(N)=O)c1cccc([N+](=O)[O-])c1
inactive: [1] 89 % of control | [2] 89 % of control | [3] 93 % of control

c1ccc2cc(C3OCCCO3)ccc2c1
inactive: dose: 100.0 mg/kg/injection, schedule: Q01DX001 (ip), vehicle: Klucel (hydroxypropylcellulose) (HPC) 94 % of control | dose: 200.0 mg/kg/injection, schedule: Q01DX001 (ip), vehicle: Klucel (hydroxypropylcellulose) (HPC) 100 % of control | dose: 400.0 mg/kg/injection, schedule: Q01DX001 (ip), vehicle: Klucel (hydroxypropylcellulose) (HPC) 100 % of control

CN(C)N=Nc1ccc([N+](=O)[O-])cc1C(=O)O
inactive: dose: 25.0 mg/kg/injection, schedule: Q04DX003 (ip), vehicle: other 93 % of control | dose: 50.0 mg/kg/injection, schedule: Q04DX003 (ip), vehicle: other 98 % of control | dose: 100.0 mg/kg/injection, schedule: Q01DX009 (ip), vehicle: Klucel (hydroxypropylcellulose) (HPC) 100 % of control | dose: 100.0 mg/kg/injection, schedule: Q04DX003 (ip), vehicle: other 98 % of control | dose: 200.0 mg/kg/injection, schedule: Q01DX009 (ip), vehicle: Klucel (hydroxypropylcellulose) (HPC) 103 % of control | dose: 200.0 mg/kg/injection, schedule: Q04DX003 (ip), vehicle: other 101 % of control | dose: 400.0 mg/kg/injection, schedule: Q01DX009 (ip), vehicle: Klucel (hydroxypropylcellulose) (HPC) 110 % of control | dose: 400.0 mg/kg/injection, schedule: Q04DX003 (ip), vehicle: other 98 % of control

O=c1[nH]c(-c2ccc(O)cc2)nc2[nH]ncc12
inactive: [5] 88 % of control | [6] 86 % of control

CC(C)CN(C)N=Nc1ccc(C(N)=O)cc1
inactive: dose: 100.0 mg/kg/injection, schedule: Q01DX001 (ip), vehicle: other 100 % of control | dose: 200.0 mg/kg/injection, schedule: Q01DX001 (ip), vehicle: other 91 % of control

CC1=NC(C)(C)C(C)=C1C
inactive: dose: 25.0 mg/kg/injection, schedule: Q04DX002 (ip), vehicle: saline with Tween-80 91 % of control | dose: 50.0 mg/kg/injection, schedule: Q04DX002 (ip), vehicle: saline with Tween-80 94 % of control | [8] 91 % of control

Cc1ccc(S(=O)(=O)OC23CCC(C)(CC2)C(=O)C3)cc1
inactive: [4] 91 % of control | dose: 200.0 mg/kg/injection, schedule: Q04DX002 (ip), vehicle: saline 102 % of control | dose: 400.0 mg/kg/injection, schedule: Q04DX002 (ip), vehicle: saline 91 % of control

CCN(CC)CCCC(C)Nc1c2ccc(Cl)cc2nc2ccc(F)cc12 (stereo not given)
inactive: dose: 44.0 mg/kg/injection, schedule: Q01DX Z (ip), vehicle: saline 111 % of control | dose: 66.0 mg/kg/injection, schedule: Q01DX Z (ip), vehicle: saline 117 % of control | dose: 100.0 mg/kg/injection, schedule: Q01DX Z (ip), vehicle: saline 117 % of control

OC(OCCCCCCOC(O)C(Cl)(Cl)Cl)C(Cl)(Cl)Cl (stereo not given)
inactive: dose: 100.0 mg/kg/injection, schedule: Q01DX009 (ip), vehicle: saline with Tween-80 93 % of control | dose: 100.0 mg/kg/injection, schedule: Q04DX003 (ip), vehicle: saline with Tween-80 98 % of control | dose: 200.0 mg/kg/injection, schedule: Q01DX009 (ip), vehicle: saline with Tween-80 98 % of control | dose: 200.0 mg/kg/injection, schedule: Q04DX003 (ip), vehicle: saline with Tween-80 104 % of control | dose: 400.0 mg/kg/injection, schedule: Q01DX009 (ip), vehicle: saline with Tween-80 106 % of control | dose: 400.0 mg/kg/injection, schedule: Q04DX003 (ip), vehicle: saline with Tween-80 98 % of control

COC1C=CC(OC)(C(OC)OC)O1 (stereo not given)
inactive: [1] 104 % of control | [2] 101 % of control | [3] 98 % of control

CC(C)CCC(CCC(C)C)NCC(C)OC(=O)c1ccc(N)cc1 (stereo not given)
inactive: dose: 75.0 mg/kg/injection, schedule: Q01DX001 (ip), vehicle: carboxymethylcellulose (CMC) 93 % of control | dose: 150.0 mg/kg/injection, schedule: Q01DX001 (ip), vehicle: carboxymethylcellulose (CMC) 89 % of control

Nc1ccc(C(=O)Oc2ccccc2)c(O)c1
inactive: [5] 95 % of control | [6] 93 % of control | [7] 95 % of control
